Data on 2 molecules can be found in US10793885B2, “Compositions and methods for making noscapine and synthesis intermediates thereof” (priority 2013, dated 2020).

One data set concerns the target T1, CXE1 (Papaver somniferum, UniProt I3PLR2).
T1 construct: corresponding open reading frames were amplified using cDNA derived from total stem RNA of the Bea's Choice chemotype; His-tag (pRSETA leader) (N); made in house; host or cells: Escherichia coli Rosetta (DE3) pLysS
T1 sequence (I3PLR2 1-320): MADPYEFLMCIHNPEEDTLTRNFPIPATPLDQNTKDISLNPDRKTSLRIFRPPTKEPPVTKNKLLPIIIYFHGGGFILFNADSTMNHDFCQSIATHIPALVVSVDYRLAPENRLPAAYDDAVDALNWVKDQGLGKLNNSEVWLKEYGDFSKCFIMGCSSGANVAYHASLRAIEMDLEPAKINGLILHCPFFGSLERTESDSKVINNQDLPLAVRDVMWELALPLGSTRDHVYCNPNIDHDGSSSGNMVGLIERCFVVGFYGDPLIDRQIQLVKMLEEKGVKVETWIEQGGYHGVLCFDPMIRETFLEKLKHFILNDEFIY
The data set is described as follows: In vitro CXE1 assay with purified recombinant protein. The following applies: native recombinant CXE1, pH 8.0, 30° C., 15 min. Type of data set: biochemical. An excerpt:
(§1) The full-length coding region of CYP82X1 was amplified using cDNA derived from total stem RNA of the Bea's Choice chemotype using Takara Ex Taq DNA polymerase (Fisher Scientific, Ottawa, Canada), and using a primer 5′-[…]-3′ (SEQ ID NO: 607) and reverse primer 5′-[…]-3′ (SEQ ID NO: 608). Owing to problems with heterologous expression in yeast, CYP82X2 was synthesized with the first 60 N-terminal amino acids replaced with the first 43 N-terminal amino acids from the lettuce cytochrome P450 germacrene A oxidase Nguyen, D. T. et al. J. Biol. Chem. 285, 16588-16598 (2010). For heterologous expression of Flag-tagged CYPs in yeast (Saccharomyces cerevisiae), the full-length coding regions of CYP82X1 and CYP82X2 were inserted into the NotI and SpeI restriction sites of the dual plasmid pESC-leu2d::CPR Ro, D.-K., Ouellet, M., Paradise, E. M., Burd, H., Eng, D., Paddon, C. J., Newman, J. D., & Keesling, J. D. BMC Biotech. […] For heterologous expression of CXE1, CXE2, and AT1, corresponding open reading frames were amplified using cDNA derived from total stem RNA of the Bea's Choice chemotype and cloned in-frame an N-terminal His-tag sequence in the Escherichia coli expression vector pRSETA (Invitrogen, Carlsbad, Calif.). […] Microsomal fractions containing recombinant CYP82X1 or CYP82X2 were detected using a-FLAG antibodies, whereas recombinant CPR was detected using α-c-Myc antibodies (FIG. 12 A). […]

In a further data set the target is T2, CXE2 (Papaver somniferum, UniProt A0A0A1EQ07).
T2 construct: corresponding open reading frames were amplified using cDNA derived from total stem RNA of the Bea's Choice chemotype; His-tag (pRSETA leader) (N); made in house; host or cells: Escherichia coli Rosetta (DE3) pLysS
T2 sequence (A0A0A1EQ07 1-313): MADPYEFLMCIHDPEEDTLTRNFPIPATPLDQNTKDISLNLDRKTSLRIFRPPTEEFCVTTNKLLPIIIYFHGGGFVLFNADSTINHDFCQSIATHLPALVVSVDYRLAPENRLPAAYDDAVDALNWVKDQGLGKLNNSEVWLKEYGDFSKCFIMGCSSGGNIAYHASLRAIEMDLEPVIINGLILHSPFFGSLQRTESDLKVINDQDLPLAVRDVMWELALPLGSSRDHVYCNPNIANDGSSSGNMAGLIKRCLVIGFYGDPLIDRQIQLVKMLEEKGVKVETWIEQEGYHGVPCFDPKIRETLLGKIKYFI
Briefly: In vitro CXE2 assay with purified recombinant protein. The format is biochemical. The settings on record: E. coli produced CXE2.
Excerpt: as §1

The next data set addresses T3, CYP82X2 (UniProt D5J9U8+I3PLR0).
T3 construct: the full-length coding regions of CYP82X1 and CYP82X2 were inserted into the NotI and SpeI restriction sites; FLAG; made in house; host or cells: Saccharomyces cerevisiae YPL 154C:Pep4, microsomal fraction
T3 sequence (D5J9U8+I3PLR0 with tags, fused parts or gaps): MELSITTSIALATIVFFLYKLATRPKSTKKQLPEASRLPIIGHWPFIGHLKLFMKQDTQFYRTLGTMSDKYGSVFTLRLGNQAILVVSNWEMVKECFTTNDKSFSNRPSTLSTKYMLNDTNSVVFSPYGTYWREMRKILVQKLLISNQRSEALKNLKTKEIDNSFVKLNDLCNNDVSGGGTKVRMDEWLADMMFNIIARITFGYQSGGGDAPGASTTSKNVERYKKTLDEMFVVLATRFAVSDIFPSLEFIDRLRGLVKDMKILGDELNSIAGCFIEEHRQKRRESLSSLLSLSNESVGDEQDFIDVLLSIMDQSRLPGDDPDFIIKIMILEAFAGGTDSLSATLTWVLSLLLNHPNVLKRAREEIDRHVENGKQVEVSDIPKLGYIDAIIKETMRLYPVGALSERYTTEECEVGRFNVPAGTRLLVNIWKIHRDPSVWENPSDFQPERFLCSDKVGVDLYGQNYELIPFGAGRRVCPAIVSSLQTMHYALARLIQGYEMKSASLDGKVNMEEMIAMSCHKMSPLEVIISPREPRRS
The data set is described as follows: In vitro enzyme assay with yeast microsomal fractions containing CYP82X2 (CPR/82X2). The following applies: yeast microsomes (CPR/82X2), extracted ion chromatograms, FIG. 13. Type of data set: biochemical, Papaver somniferum. The source says:
(§2) The full-length coding region of CYP82X1 was amplified using cDNA derived from total stem RNA of the Bea's Choice chemotype using Takara Ex Taq DNA polymerase (Fisher Scientific, Ottawa, Canada), and using a primer 5′-[…]-3′ (SEQ ID NO: 607) and reverse primer 5′-[…]-3′ (SEQ ID NO: 608). Owing to problems with heterologous expression in yeast, CYP82X2 was synthesized with the first 60 N-terminal amino acids replaced with the first 43 N-terminal amino acids from the lettuce cytochrome P450 germacrene A oxidase Nguyen, D. T. et al. J. Biol. Chem. 285, 16588-16598 (2010). For heterologous expression of Flag-tagged CYPs in yeast (Saccharomyces cerevisiae), the full-length coding regions of CYP82X1 and CYP82X2 were inserted into the NotI and SpeI restriction sites of the dual plasmid pESC-leu2d::CPR Ro, D.-K., Ouellet, M., Paradise, E. M., Burd, H., Eng, D., Paddon, C. J., Newman, J. D., & Keesling, J. D. BMC Biotech. 8, 83 (2008) yielding pESC-Leu2d::CYP82X1/CPR and pESC-Leu2d::CYP82X2/CPR. The protease-deficient yeast strain YPL 154C:Pep4 was transformed with pESC-Leu2d::CYP82X1/CPR and pESC-Leu2d::CYP82X2/CPR. Yeast culture, microsome preparation, and immunoblot analysis were performed as described previously Dang, T.-T. T. & Facchini, P. J. J. Biol. Chem. 289, 2013-2026 (2014). For heterologous expression of CXE1, CXE2, and AT1, corresponding open reading frames were amplified using cDNA derived from total stem RNA of the Bea's Choice chemotype and cloned in-frame an N-terminal His-tag sequence in the Escherichia coli expression vector pRSETA (Invitrogen, Carlsbad, Calif.). CXE1 and CXE2 were individually inserted into the SacI and HindIII restriction sties, whereas AT1 was inserted into the KpnI and HindIII sites, of pRSETA using a primer 5′-[…]-3′ (SEQ ID NO: 609) and reverse primer 5′-[…]-3′ (SEQ ID NO: 610). […] Microsomal fractions containing recombinant CYP82X1 or CYP82X2 were detected using a-FLAG antibodies, whereas recombinant CPR was detected using α-c-Myc antibodies (FIG. 12 A). […]

Another data set concerns the target T4, CYP82X1 (Papaver somniferum, UniProt I3V6B7).
T4 construct: The full-length coding region of CYP82X1 was amplified using cDNA derived from total stem RNA of the Bea's Choice chemotype; FLAG; made in house; host or cells: Saccharomyces cerevisiae YPL 154C:Pep4, microsomal fraction
T4 sequence (I3V6B7 1-540): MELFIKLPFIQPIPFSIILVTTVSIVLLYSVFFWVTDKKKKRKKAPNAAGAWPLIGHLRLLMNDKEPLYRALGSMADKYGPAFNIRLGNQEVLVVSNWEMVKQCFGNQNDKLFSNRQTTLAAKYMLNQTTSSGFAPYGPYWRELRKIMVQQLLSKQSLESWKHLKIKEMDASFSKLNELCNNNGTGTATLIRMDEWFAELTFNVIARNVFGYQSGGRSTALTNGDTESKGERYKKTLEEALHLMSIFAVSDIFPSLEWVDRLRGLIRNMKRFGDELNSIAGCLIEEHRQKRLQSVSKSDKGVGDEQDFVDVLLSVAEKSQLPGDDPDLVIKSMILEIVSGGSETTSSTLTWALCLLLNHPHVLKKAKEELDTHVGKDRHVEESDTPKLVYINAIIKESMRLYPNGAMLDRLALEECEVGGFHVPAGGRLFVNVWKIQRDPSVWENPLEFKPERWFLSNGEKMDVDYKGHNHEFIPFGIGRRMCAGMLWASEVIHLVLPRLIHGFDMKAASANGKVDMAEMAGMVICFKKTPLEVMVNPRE
The data set is described as follows: In vitro enzyme assay with yeast microsomal fractions containing CYP82X1 (CPR/82X1). Type of data set: biochemical. The settings on record: yeast microsomes (CPR/82X1), extracted ion chromatograms, FIG. 13.
Excerpt: as §2

The target of a further data set is T5, AT1 (Papaver somniferum, UniProt I3PLR4).
T5 construct: corresponding open reading frames were amplified using cDNA derived from total stem RNA of the Bea's Choice chemotype; His-tag (pRSETA leader) (N); made in house; host or cells: Escherichia coli Rosetta (DE3) pLysS
T5 sequence (I3PLR4 1-471): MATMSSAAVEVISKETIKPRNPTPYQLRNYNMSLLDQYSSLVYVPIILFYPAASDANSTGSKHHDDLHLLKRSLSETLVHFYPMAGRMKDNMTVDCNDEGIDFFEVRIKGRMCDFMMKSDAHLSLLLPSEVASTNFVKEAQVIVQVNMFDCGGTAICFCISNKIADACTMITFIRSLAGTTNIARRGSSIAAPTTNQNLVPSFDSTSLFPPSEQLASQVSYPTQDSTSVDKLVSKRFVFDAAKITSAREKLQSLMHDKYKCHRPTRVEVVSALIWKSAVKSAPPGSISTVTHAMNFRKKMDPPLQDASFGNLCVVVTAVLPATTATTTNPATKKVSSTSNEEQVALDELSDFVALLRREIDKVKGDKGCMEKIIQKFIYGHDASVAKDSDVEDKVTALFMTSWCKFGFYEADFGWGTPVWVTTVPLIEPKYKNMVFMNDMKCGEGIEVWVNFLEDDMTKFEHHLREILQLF
Briefly: In vitro AT1 assay with purified recombinant protein. Type of data set: biochemical. The following applies: native recombinant AT1, 50 μM acetyl-CoA, pH 8.0, 30° C., 15 min.
Excerpt: as §1

SMILES strings stand for the structures.

With `COc1ccc(C(OC(C)=O)C2c3c(cc4c(c3OC)OCO4)CCN2C)c(C=O)c1OC` (centres unmarked) [3-O-acetylpapaveroxine], the “conversion as substrate by CXE1” value on CXE1 was “yielding papaveroxine”. Moreover, the “conversion as substrate by CXE2” value on CXE2 was “form narcotine hemiacetal”.
On to `COc1ccc2c(c1OC)C[N+]1(C)CCc3cc4c(c(O)c3C1C2O)OCO4` [(S)-1,13-dihydroxy-N-methylcanadine], for which the “conversion as substrate by CYP82X2” value at CYP82X2 is given as “No products were detected”. Moreover, the “conversion as substrate by CYP82X1” value on CYP82X1 was “No products were detected”. Also, the “conversion as substrate by AT1” value at AT1 is “forming (S)-1-hydroxy-13-O-acetyl-N-methylcanadine”.
